Source: US10857105B2, “Compounds and compositions for intracellular delivery of therapeutic agents” (ModernaTX, Inc., priority 2017, dated 2020)

Tests used:
[1] = Protein expression with nanoparticle composition containing Compound 18 versus MC3 counterpart, 0.1 and 0.3 mpk; type: in vivo; conditions: dose response between 0.1 and 0.3 mpk
[2] = tested on: mice; test: hEPO expression on repeat intravenous dosing of hEPO mRNA LNPs in mice; type: in vivo; conditions: 0.5 mg/kg hEPO mRNA intravenously to mice
Procedure: Blood collection and analysis for hEPO. Blood was collected from mice or rats via the tail vein and hEPO concentrations were determined using a hEPO ELISA assay.
Repeat dosing of mRNA in an MC3-based LNP for a therapeutic indication would be expected to lead to accumulation of MC3 in tissues, based on the measured half-life. Therefore it was investigated whether the favorable single dose pharmacokinetics of compound 18 were maintained with weekly dosing. Clearance of MC3 and compound 18 from multiple mouse tissues was measured after dosing 0.05 mg/kg mRNA on day 1, 8 and 15 (FIG. 30A). Following dosing with MC3 LNPs, lipid was detected in liver, spleen, plasma, kidney, heart and lung; with liver and spleen containing the largest concentrations (FIG. 30A, for full panel of tissues see FIG. 35A). […] Compound 18 was also detected in plasma, lung, and kidney, but not in heart (FIG. 35A).

[3] = tested on: luciferase (Luc) mRNA; test: Luciferase expression after subcutaneous administration to mice; type: in vivo, CD-1 mice; conditions: 6 hr. time point, relative to MC3; for Novel lipid/MC3 expression ratio, s.c. Luc (mpk) 0.5: 0.5 mpk
Source text: FIGS. 19A and 19B show the results of luciferase expression measured upon subcutaneous administration of various nanoparticle compositions to CD-1 mice at 0.05 mpk. FIG. 19A is a bar graph showing total flux at 6 hr after administration. The numbers above each bar indicate the expression ratio relative to MC3. […] Numbers 1-12 in the Figures refer to compositions containing the following: 1: PBS, 2: MC3, 3: Compound 25; 4: Compound 30; 5: Compound 20; 6: Compound 110; 7: Compound 112; 8: Compound 113; 9: Compound 72; 10: Compound 75; 11: Compound 122, 12: Compound 24.
FIGS. 20A-20C is a series of graphs summarizing luciferase expression levels in (FIG. 20A) spleen (FIG. 20B) liver, and (FIG. 20C) at the injection site, ex vivo, 24 h after administration of nanoparticle compositions containing compounds of the disclosure to CD-1 mice. Total light flux values were acquired via body luminescent imaging (BLI). PBS (phosphate buffered saline) was used as a control. Numbers 1-12 in the Figures refer to compositions containing the following: 1: PBS, 2: MC3, 3: Compound 25; 4: Compound 30; 5: Compound 20; 6: Compound 110; 7: Compound 112; 8: Compound 113; 9: Compound 72; 10: Compound 75; 11: Compound 122, 12: Compound 24.
FIGS. 22A-22C are a series of graphs summarizing luciferase expression levels at (FIG. 22A) 3 h, (FIG. 22B) 6 h, and (FIG. 22C) 24 h after subcutaneous administration of nanoparticle compositions containing compounds of the disclosure to mice. Total light flux values were acquired via body luminescent imaging (BLI). PBS (phosphate buffered saline) was used as a control. Numbers 1-12 in the Figures refer to compositions containing the following: 1: PBS, 2: MC3, 3: Compound 168; 4: Compound 23; 5: Compound 19; 6: Compound 108; 7: Compound 109; 8: Compound 111; 9: Compound 60; 10: Compound 61; 11: Compound 69, 12: Compound 128.

[4] = tested on: cynomolgus monkeys; test: Human IgG (anti-influenza A antibody mRNA) expression in non-human primates; type: in vivo, cynomolgus monkey; conditions: NHP, single dose
Procedure: NHP studies: Nonhuman primate studies were conducted using naïve cynomolgus monkeys (cynos), 2-4 years old, weighing 2-6 kg. No treatment randomization or blinding methods were used for any of the animal studies. Sample sizes were determined by the resource equation method. For injection, mRNA-LNPs in phosphate buffered saline (PBS) were administered by 60-minute intravenous infusion using a temporary indwelling catheter inserted in a peripheral vein.
Human IgG analysis for NHP samples: A 10.0-μL matrix aliquot is transferred to a low protein binding 96-well plate. A 25.0-μL aliquot of the working internal standard solution is added, and the sample aliquot is diluted with loading buffer. […] The final extract is analyzed via HPLC with MS/MS detection using positive ion electrospray. A linear, 1/concentration^2 weighted, least-squares regression algorithm is used to quantitate unknown samples.
NHP more closely approximates clinical responses for LNP-based systems than rodent (DeRosa, F., Guild, B., Karve, S., Smith, L., Love, K., Dorkin, J R., et. al. Therapeutic efficacy in a hemophilia B model using a biosynthetic mRNA liver depot system. Gene Ther. 2016, 23, 699-707, the contents of which are incorporated herein by reference in their entireties). […] A separate study evaluated the lipid tissue accumulation in NHP after a single dose.

[5] = in vivo; conditions: male, Sprague-Dawley, rat, iv
Procedure: LNP administration to animals: mRNA-LNPs diluted in phosphate buffered saline (PBS) were injected intravenously (5 mL/kg) into female CD-1 female mice (18 to 22 g in body weight) and male Sprague-Dawley rats (225-250 g in body weight) via the tail vein using 29 g, 3/10 cc insulin syringes (mice) or 27 g, 1 mL syringes (rats) after gentle warming of the animals using a heat lamp for 3 minutes.
Protein was precipitated and analyzed against calibration standards prepared in matching blank. Chromatographic separation and quantification was accomplished with a LC-MS/MS System. Samples were injected and separated via HPLC A triple-quadrupole MS/MS system operated in positive ion mode was used for signal detection.
PK analysis of the individual plasma and tissue concentration data was performed using anon-validated program (Phoenix WinNonlin®, Version 7.0 (Pharsight Corp., Mountain View, Calif.)). Kinetic parameters were estimated using a noncompartmental model (Plasma (200-202), Uniform weighting, extravascular dosing with sparse sampling). The AUG was calculated using the linear trapezoidal rule. All derived parameters are reported to 3 significant figures with the exception of time to peak concentration (Tmax) and halflife (HL), which are reported to one decimal place. No further statistical analyses were performed on the plasma concentration data or derived pharacokinetic parameters.

[6] = tested on: hEPO mRNA; test: hEPO expression and pharmacokinetic parameters after intravenous infusion to non-human primates; type: in vivo; conditions: 0.01 mpk, iv infusion 60 minutes, cynomolgus monkeys
[7] = tested on: sC5b-9; test: Complement activation: sC5b-9 levels in human cells contacted in vitro with nanoparticle compositions; type: cell-based
Procedure: Complement activation assists in the clearance of pathogens from an organism. As it is undesirable that a subject's body recognize a nanoparticle composition as a foreign invader, low complement system activation upon administration of such a composition is preferred. The complex sC5b-9 is a marker for the activation of the complement system. Thus, human cells were contacted in vitro with nanoparticle compositions according to Table 1A and were evaluated for sC5b-9 levels.

## CCCCCCCCCOC(=O)CCCCCCCN(CCO)CCCCCCCC(=O)OC(CCCCCCCC)CCCCCCCC [Compound 18, Heptadecan-9-yl 8-((2-hydroxyethyl)(8-(nonyloxy)-8-oxooctyl)amino)octanoate]
[1]
  0.3 mpk AUC relative to 0.1 mpk dose AUC: about three times
[2]
  hEPO expression on repeat dosing: Consistent levels of expression
[3]
  Novel lipid/MC3 expression ratio, s.c. Luc (mpk) 0.5: 1.88
[4]
  increase in expression of anti-human IgG influenza A antibody compared to an MC3 LNP: 5 fold
[5]
  half-life: 348 min

## CCCCCC=CCC=CCCCCCCCCC(CCCCCCCCC=CCC=CCCCCC)OC(=O)CCCN(C)C (stereo not drawn) [MC3, heptatriaconta-6,9,28,31-tetraen-19-yl 4-(dimethylamino)butanoate, reference compound]
[6]
  AUC Lipid/MC3 Ratio: 1.0
[7]
  Fold increase in sC5b-9 levels versus saline: 0.73

## Nonyl 8-((6-(heptadecan-9-yloxy)-6-oxohexyl)(2-hydroxyethyl)amino) octanoate [Compound 27]
[3]; 0.05 mpk
  Novel lipid/MC3 expression ratio, s.c. Luc (mpk) 0.05: 14.45
[3]
  Novel lipid/MC3 expression ratio, s.c. Luc (mpk) 0.5: 4.87
